According to patent publication US20080293814A1, “CONCENTRATE ESMOLOL” (priority 2007, published 2008):
Structures can show the parent of a compound that is named as a salt.

Test: pH dependence of esmolol degradation in solution
Format: physicochemical
Method: While lower concentration (e.g., 10 mg/ml) ready-to-use compositions of esmolol require an additional buffer to maintain pH, higher concentrations of esmolol in the present invention compositions, provide self-buffering capacity to the composition. […] The concentrate can include a pharmaceutically acceptable buffer to aid in maintaining the pH in a range of from about 3.5 to about 7.0. Preferably, the pH is maintained between about 4.5 and about 5.5, more preferably between 4.9 and 5.1.

pH at which esmolol is most stable: about 5.0
Compound: COC(=O)CCc1ccc(OCC(O)CNC(C)C)cc1 (stereo not shown) [esmolol, methyl-3-[4-(2-hydroxy-3-isopropylamino)propoxy]phenylpropionate hydrochloride]
